Experimental data as given in patent publication US20140171357A1, “VANCOMYCIN DERIVATIVES” (Seachald Pharmaceuticals, Inc., priority 2011, published 2014).
Values after ≈ are worked out from the molar mass of the structure shown.

What was measured:
[1] = system: methicillin-susceptible S. aureus (MSSA, 22); assay: MIC broth microdilution, MSSA; details: MSSA (22)
[2] = system: methicillin-resistant S. aureus (MRSA, 22); assay: MIC broth microdilution, MRSA; details: MRSA (22)
[3] = system: vancomycin-intermediate S. aureus (VISA, 5); assay: MIC broth microdilution, VISA
[4] = system: vancomycin-resistant S. aureus (VRSA, 6); assay: MIC broth microdilution, VRSA
[5] = system: heterogeneous VISA (hVISA, 10); assay: MIC broth microdilution, hVISA
S. pneumoniae (22) = assay: MIC broth microdilution, S. pneumoniae; details: S. pneumoniae (22); MHB + lysed horse blood
[6] = system: Staphylococcus epidermidis (43 strains); assay: MIC broth microdilution, S. epidermidis; details: S. epidermidis (43)
[7] = system: VanA vancomycin-resistant E. faecium (10); assay: MIC broth microdilution, VanA E. faecium; details: E. faecium, VanA (10)
[8] = system: VanB vancomycin-resistant E. faecium (10); assay: MIC broth microdilution, VanB E. faecium; details: E. faecium, VanB (10)
S. aureus ATCC 25923 = assay: Neutropenic murine thigh infection model; details: for AUCc-t (AUC difference between control and treated animals): 24 h time kill
[9] = system: VanA vancomycin-resistant E. faecalis (11); assay: MIC broth microdilution, VanA E. faecalis; details: for MIC 50% / MIC 90%: E. faecalis, VanA (11)
[10] = system: VanB vancomycin-resistant E. faecalis (12); assay: MIC broth microdilution, VanB E. faecalis; details: E. faecalis, VanB (12)
[11] = system: Staphylococcus aureus (65 strains); assay: MIC broth microdilution, S. aureus all isolates; details: S. aureus (65), all resistance subsets
[12] = system: β-hemolytic streptococci (23); assay: MIC broth microdilution, β-hemolytic streptococci; details: β-hemolytic streptococci (23); MHB + lysed horse blood
VanC enterococci (22) = assay: MIC broth microdilution, vanC-carrying enterococci; details: VanC enterococci (22)
[13] = system: vancomycin-susceptible E. faecium (21); assay: MIC broth microdilution, vancomycin-susceptible E. faecium; details: E. faecium, vancomycin-susceptible (21)
[14] = system: vancomycin-susceptible E. faecalis (23); assay: MIC broth microdilution, vancomycin-susceptible E. faecalis; details: E. faecalis, vancomycin-susceptible (23)
[15] = 1 mg/kg single intraperitoneal dose
[16] = 4 mg/kg single intraperitoneal dose
[17] = 16 mg/kg single intraperitoneal dose

Row | Structure (SMILES) | MIC 50% [1] [µg/mL] | MIC 90% [1] [µg/mL] | MIC 50% [2] [µg/mL] | MIC 90% [2] [µg/mL] | MIC 50% [3] [µg/mL] | MIC 50% [4] [µg/mL] | MIC 50% [5] [µg/mL] | MIC 90% [5] [µg/mL] | MIC 50% (S. pneumoniae (22)) [µg/mL] | MIC 90% (S. pneumoniae (22)) [µg/mL] | MIC 50% [6] [µg/mL] | MIC 90% [6] [µg/mL] | MIC 50% [7] [µg/mL] | MIC 90% [7] [µg/mL] | MIC 50% [8] [µg/mL] | MIC 90% [8] [µg/mL] | Max Kill (maximum decrease from initial infection level) (S. aureus ATCC 25923; [15]) [Log10 CFU/thigh] | AUCc-t (AUC difference between control and treated animals) (S. aureus ATCC 25923; [15]) | Max Kill (maximum decrease from initial infection level) (S. aureus ATCC 25923; [16]) [Log10 CFU/thigh] | AUCc-t (AUC difference between control and treated animals) (S. aureus ATCC 25923; [16]) | also measured
1 | CNC(CC(C)C)C(=O)NC1C(=O)NC(CC(N)=O)C(=O)NC2C(=O)NC3C(=O)NC(C(=O)NC(C(=O)NCCOCCOCCN)c4cc(O)cc(O)c4-c4cc3ccc4O)C(O)c3ccc(c(Cl)c3)Oc3cc2cc(c3OC2OC(CO)C(O)C(O)C2OC2CC(C)(NCc3ccc(OCc4ccc(Cl)c(Cl)c4)cc3)C(O)C(C)O2)Oc2ccc(cc2Cl)C1O (centres unmarked) [Compound 27] | 0.06 (≈ 0.0325 µM) | 0.06 (≈ 0.0325 µM) | 0.06 (≈ 0.0325 µM) | 0.06 (≈ 0.0325 µM) | 0.12 (≈ 0.0651 µM) | 2 (≈ 1.08 µM) | 0.06 (≈ 0.0325 µM) | 0.06 (≈ 0.0325 µM) | 0.03 | 0.06 | 0.03 (≈ 0.0163 µM) | 0.03 (≈ 0.0163 µM) | 0.5 (≈ 0.271 µM) | 1 (≈ 0.542 µM) | 0.03 (≈ 0.0163 µM) | 0.03 (≈ 0.0163 µM) | 0.45 | 19.8 (Log10 CFU/thigh)/hr | −0.008 | 18.8 (Log10 CFU/thigh)/hr | Max Kill (maximum decrease from initial infection level) (S. aureus ATCC 25923; [17]): −0.35 Log10 CFU/thigh; AUCc-t (AUC difference between control and treated animals) (S. aureus ATCC 25923; [17]): 36.9 (Log10 CFU/thigh)/hr; MIC 50% [9]: 2 µg/mL (≈ 1.08 µM); MIC 90% [9]: 2 µg/mL (≈ 1.08 µM); fold higher MIC50/MIC90 against VanA-type E. faecalis compared with wildtype (susceptible) strains ([9]; VanA vs wildtype E. faecalis): 16 fold; concentration inhibiting all strains ([9]; VanA-type E. faecalis): ≤ 2 µg/mL; MIC 50% [10]: 0.12 µg/mL (≈ 0.0651 µM); MIC 90% [10]: 0.12 µg/mL (≈ 0.0651 µM); MIC 50% [11]: 0.06 µg/mL (≈ 0.0325 µM); MIC 90% [11]: 0.25 µg/mL (≈ 0.136 µM); MIC 50% [12]: 0.06 µg/mL; MIC 90% [12]: 0.12 µg/mL; MIC 50% (VanC enterococci (22)): 0.06 µg/mL (≈ 0.0325 µM); MIC 90% (VanC enterococci (22)): 0.25 µg/mL (≈ 0.136 µM); MIC 50% [13]: 0.03 µg/mL (≈ 0.0163 µM); MIC 90% [13]: 0.06 µg/mL (≈ 0.0325 µM); MIC 50% [14]: 0.12 µg/mL (≈ 0.0651 µM); MIC 90% [14]: 0.12 µg/mL (≈ 0.0651 µM)
2 | CNC(CC(C)C)C(=O)NC1C(=O)NC(CC(N)=O)C(=O)NC2C(=O)NC3C(=O)NC(C(=O)NC(C(=O)O)c4cc(O)c(CNCCOCCOCC[N+](C)(C)C)c(O)c4-c4cc3ccc4O)C(O)c3ccc(c(Cl)c3)Oc3cc2cc(c3OC2OC(CO)C(O)C(O)C2OC2CC(C)(NCc3ccc(-c4ccc(Cl)cc4)cc3)C(O)C(C)O2)Oc2ccc(cc2Cl)C1O (centres unmarked) [Compound 13] | 0.12 | 0.25 | 0.12 | 0.12 | 0.5 | 8 | 0.12 | 0.12 | 0.06 | 0.12 | 0.12 | 0.12 | 2 | 4 | 0.12 | 0.12 | 0.9 | 12.6 (Log10 CFU/thigh)/hr | 0.28 | 20.6 (Log10 CFU/thigh)/hr | Max Kill (maximum decrease from initial infection level) (S. aureus ATCC 25923; [17]): 0.02 Log10 CFU/thigh; AUCc-t (AUC difference between control and treated animals) (S. aureus ATCC 25923; [17]): 29.5 (Log10 CFU/thigh)/hr; MIC 50% [9]: 8 µg/mL; MIC 90% [9]: 16 µg/mL; MIC 50% [10]: 0.25 µg/mL; MIC 90% [10]: 0.5 µg/mL; MIC 50% [11]: 0.12 µg/mL; MIC 90% [11]: 0.5 µg/mL; MIC 50% [12]: 0.06 µg/mL; MIC 90% [12]: 0.06 µg/mL; MIC 50% (VanC enterococci (22)): 0.25 µg/mL; MIC 90% (VanC enterococci (22)): 1 µg/mL; MIC 50% [13]: 0.12 µg/mL; MIC 90% [13]: 0.12 µg/mL; MIC 50% [14]: 0.25 µg/mL; MIC 90% [14]: 0.25 µg/mL
